The record followed here is patent EP4813463A2, “TYK2 INHIBITORS AND COMPOSITIONS AND METHODS THEREOF” (Lynk Pharmaceuticals Co. Ltd., priority 2023, dated 2024).

SMILES strings stand for the structures. Like-named read-outs stand apart in the source and are kept apart here.

One test deals with T1, TYK2-JH2 domain (Homo sapiens, UniProt P29597).
T1 construct: JAK1-JH2 domain or TYK2-JH2 domain enzyme in assay buffer
Description: Binding activity test for JH2 domain of TYK2 (Tb-antibody/tracer FRET). How it is done: Binding Activity test for JH2 domain of JAK1 and TYK2 […] Add 8μL/well in echo source plate, echo will add 75nL/well with 3-fold serial dilution for 11 points in assay plate. 75nL DMSO for high control and low control. […] For low control, add 5μL/well assay buffer. And then spin down at 1000rpm and centrifuge for 30 seconds. After enzyme system prepared, add 5μL of Tb-antibody solution into each well of assay plate. Spin down at 1000 rpm and centrifuge for 30sec. After Tb-antibody added, also add 5μL of tracer into the assay plate. Spin down at 1000rpm and centrifuge for 30sec. Incubate for […] at 25°C firstly and then continue to incubate the plate at 4°C overnight. Read by envision in FRET mode. The Luminescence value was recorded by a multi-label reader Envision (PerkinElmer). […] Table 2. IC50 on JH2 domain activity (nM)

Test [1] has as its system Ba/F3-FL-TYK2-P760L cells. Nature of the test: Anti-proliferative assay in engineered Ba/F3 cells (Cell-Titer Glo, 72 h). It counts as cell-based. The note with it: Mus musculus, concentration that causes 50% growth inhibition, read-out: Baf3-FL-T2P760L. How it is done: Dimerization domain of Tel protein fused with JAK kinase domain was permanently transduced into Ba/F3 cells, whose proliferation is dependent on JAK activity in the absence of IL-3 induction. These engineered Ba/F3-FL-TYK2-P760L cells were used to monitor JAK inhibitory activities of the compounds in the cellular. Ba/F3 cells were cultured in RPMI-1640 (Corning) containing 10% fetal bovine serum. Cells were seeded at 2000/well of white flat bottom 96-well plates. The well containing medium only was used as background control. After 24h growth, cells were treated with compounds. The test compounds were dissolved in DMSO to a stock concentration of 20 mM. 3-fold serially diluted compounds for 9 concentrations with top concentration of 20 µM was added into the each well. The final DMSO concentration was 0.1%. The cells continued to grow at 37°C in 5% CO2 for 72 h after compound treatment. The viability was measured by cellular ATP determination using the Cell-Titer Glo luciferase reagent (Promega). The Luminescence value was recorded by a multi-label reader Envision (PerkinElmer). Inhibition Rate was calculated relative to vehicle (DMSO) treated control wells using following formula: % Inhibition = 100−(RLU_compound−RLU_blank)/(RLU_control−RLU_blank) × 100% [formula] wherein • RLU_compound = the relative light unit of cells treated with test compounds • RLU_blank = the relative light unit of medium with DMSO only • RLU_control = the relative light unit of cells treated with DMSO only
Table 4. Ba/F3-FL-TYK2-P760L Cells IC50 Values of Exemplary Compounds

Where [2] appears, read: JH2 domain enzyme; 60 min at 25°C, then 4°C overnight; read-out: TYK2 JH2 Binding IC50.
The mark [3] stands for this setting: BaF3, 72 h, 72 h compound treatment.

T1 sequence (P29597 589-875 limits assumed): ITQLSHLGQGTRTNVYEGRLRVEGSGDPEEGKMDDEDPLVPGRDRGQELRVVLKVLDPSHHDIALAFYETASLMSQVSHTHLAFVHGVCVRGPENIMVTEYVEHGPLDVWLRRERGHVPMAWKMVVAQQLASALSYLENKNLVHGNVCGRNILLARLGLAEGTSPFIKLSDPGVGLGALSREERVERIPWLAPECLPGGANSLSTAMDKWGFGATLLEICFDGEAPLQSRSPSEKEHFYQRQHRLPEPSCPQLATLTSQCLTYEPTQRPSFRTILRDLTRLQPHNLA

As to `COC(=O)c1cnc(NC(=O)[C@@H]2C[C@@H]2F)cc1Nc1nn(C)c2ccc(C(OC)C(C)(F)F)c(OC)c12` (stereo partly drawn) [Example 116, Methyl 4-((5-(2,2-difluoro-1-methoxypropyl)-4-methoxy-1-methyl-1H-indazol-3-yl)amino)-6-((1S,2S)-2-fluorocyclopropane-1-carboxamido)nicotinate], the IC50 on TYK2-JH2 domain (setting [2]) turned out to be 0.188 nM; in test [1] (setting [3]), 4.65 nM.
Taken in the same sequence, the figures for `[2H]C([2H])([2H])Oc1c([C@H](OC)C(F)(F)F)ccc2c1c(Nc1cc(NC(=O)C3CC3)ncc1C(=O)OC)nn2C` [Example 120A, Methyl (S)-6-(cyclopropanecarboxamido)-4-((4-(methoxy-d3)-1-methyl-5-(2,2,2-trifluoro-1-methoxyethyl)-1H-indazol-3-yl)amino)nicotinate] were 0.089 nM and 2.71 nM.
The like results for `[2H]C([2H])([2H])Oc1c([C@@H](OC)C(F)(F)F)ccc2c1c(Nc1cc(NC(=O)C3CC3)ncc1C(=O)OC)nn2C` [Example 120B, Methyl (R)-6-(cyclopropanecarboxamido)-4-((4-(methoxy-d3)-1-methyl-5-(2,2,2-trifluoro-1-methoxyethyl)-1H-indazol-3-yl)amino)nicotinate] were, in that order, 0.442 nM and 107 nM.
Taken in the same sequence, the figures for `COC(=O)c1cnc(NC(=O)[C@@H]2C[C@@H]2F)cc1Nc1nn(C)c2ccc(C(O)C(F)(F)F)c(OC)c12` (stereo partly drawn) [Example 122, Methyl 6-((1S,2S)-2-fluorocyclopropane-1-carboxamido)-4-((4-methoxy-1-methyl-5-(2,2,2-trifluoro-1-hydroxyethyl)-1H-indazol-3-yl)amino) nicotinate] were 0.178 nM and 1.16 nM.
With `[2H]C([2H])([2H])CC(=O)c1cnc(NC(=O)C2CC2)cc1Nc1nn(C)c2ccc(C#N)c(OC)c12` [Example 127, N-(4-((5-cyano-4-methoxy-1-methyl-1H-indazol-3-yl)amino)-5-(propanoyl-3,3,3-d3)pyridin-2-yl)cyclopropanecarboxamide], the IC50 on TYK2-JH2 domain (setting [2]) came to 0.256 nM; in test [1] (setting [3]), 52.3 nM.
Take `COC(=O)c1cnc(NC(=O)C2CC2)cc1Nc1nn(C)c2ccc(C(O)C3(F)CC3)c(OC)c12` (stereo not shown) [Example 128, Methyl 6-(cyclopropanecarboxamido)-4-((5-((1-fluorocyclopropyl)(hydroxy)methyl)-4-methoxy-1-methyl-1H-indazol-3-yl)amino)nicotinate]: the IC50 on TYK2-JH2 domain (setting [2]) came out at 0.26 nM; in test [1] (setting [3]), 17.3 nM.
Consider `CCC(F)(F)c1cnc(NC(=O)C2CC2)cc1Nc1nn(C)c2ccc(C(O)C(F)(F)F)c(OC)c12` (stereo not shown) [Example 129, N-(5-(1,1-difluoropropyl)-4-((4-methoxy-1-methyl-5-(2,2,2-trifluoro-1-hydroxyethyl)-1H-indazol-3-yl)amino)pyridin-2-yl)cyclopropanecarboxamide], for which the IC50 at TYK2-JH2 domain (setting [2]) stood at 0.466 nM; in test [1] (setting [3]) it was 1.41 nM.
Take `C/C=C(\F)c1cnc(NC(=O)C2CC2)cc1Nc1nn(C)c2ccc(C(O)C(F)(F)F)c(OC)c12` (stereo not shown) [Example 130, (Z)-N-(5-(1-fluoroprop-1-en-1-yl)-4-((4-methoxy-1-methyl-5-(2,2,2-trifluoro-1-hydroxyethyl)-1H-indazol-3-yl)amino)pyridin-2-yl)cyclopropanecarboxamide]: the results for the IC50 (at TYK2-JH2 domain (setting [2]); in test [1] (setting [3])) were 0.688 nM and 157 nM, respectively.
Taken in the same sequence, the figures for `[2H]C([2H])([2H])CC(=O)c1cnc(NC(=O)C2CC2)cc1Nc1nn(C)c2ccc(COC)c(OC)c12` [Example 132, N-(4-((4-methoxy-5-(methoxymethyl)-1-methyl-1H-indazol-3-yl)amino)-5-(propanoyl-3,3,3-d3)pyridin-2-yl)cyclopropanecarboxamide] were 0.174 nM and 25.9 nM.
As to `COCc1ccc2c(c(Nc3cc(NC(=O)C4CC4)ncc3C(=O)OC)nn2C)c1OC` [Example 133, Methyl 6-(cyclopropanecarboxamido)-4-((4-methoxy-5-(methoxymethyl)-1-methyl-1H-indazol-3-yl)amino)nicotinate], the IC50 at TYK2-JH2 domain (setting [2]) came to 0.288 nM; in test [1] (setting [3]), 53.3 nM.
Taken in the same sequence, the figures for `[2H]C([2H])([2H])NC(=O)c1nnc(NC(=O)C2CC2)cc1Nc1nn(C)c2ccc([C@H](OC([2H])([2H])[2H])C(F)(F)F)c(OC)c12` [Example 135, (S)-6-(cyclopropanecarboxamido)-4-((4-methoxy-1-methyl-5-(2,2,2-trifluoro-1-(methoxy-d3)ethyl)-1H-indazol-3-yl)amino)-N-(methyl-d3)pyridazine-3-carboxamide] were 0.07 nM and 0.327 nM.
The like results for `COC(=O)c1cnc(NC(=O)C2CC2)cc1Nc1nn(C)c2ccc(Cl)c(OC)c12` [Example 137, Methyl 4-((5-chloro-4-methoxy-1-methyl-1H-indazol-3-yl)amino)-6-(cyclopropanecarboxamido)nicotinate] were, in that order, 0.377 nM and 99.8 nM.
The like results for `COC(=O)c1cnc(Nc2ccc(F)cn2)cc1Nc1nn(C)c2ccc(C(OC)C(F)(F)F)c(OC)c12` (stereo not shown) [Example 142, Methyl 6-((5-fluoropyridin-2-yl)amino)-4-((4-methoxy-1-methyl-5-(2,2,2-trifluoro-1-methoxyethyl)-1H-indazol-3-yl)amino)nicotinate] were, in that order, 0.185 nM and 12 nM.
Regarding `COC(=O)c1cnc(NC(=O)C2CC2)cc1Nc1nn(C)c2ccc(CC#N)c(OC)c12` [Example 145, Methyl 4-((5-(cyanomethyl)-4-methoxy-1-methyl-1H-indazol-3-yl)amino)-6-(cyclopropanecarboxamido)nicotinate], the values for the IC50 (at TYK2-JH2 domain (setting [2]); in test [1] (setting [3])) were 0.151 nM and 15.2 nM, respectively.
Regarding `[2H]C([2H])([2H])CC(=O)c1cnc(NC(=O)C2CC2)cc1Nc1nn(C)c2ccc(Cl)c(OC)c12` [Example 147, N-(4-((5-chloro-4-methoxy-1-methyl-1H-indazol-3-yl)amino)-5-(propanoyl-3,3,3-d3)pyridin-2-yl)cyclopropanecarboxamide], the values for the IC50 (at TYK2-JH2 domain (setting [2]); in test [1] (setting [3])) were 0.146 nM and 23.8 nM, respectively.
In the case of `COC(=O)c1cnc(NC(=O)C2CC2)cc1Nc1nn(C)c2ccc(CC(F)(F)F)c(OC)c12` [Example 148, Methyl 6-(cyclopropanecarboxamido)-4-((4-methoxy-1-methyl-5-(2,2,2-trifluoroethyl)-1H-indazol-3-yl)amino)nicotinate], the IC50 amounted to 0.091 nM at TYK2-JH2 domain (setting [2]) and 7.08 nM in test [1] (setting [3]).
The like results for `[2H]C([2H])([2H])CC(=O)c1cnc(NC(=O)C2CC2)cc1Nc1nn(C)c2ccc(C(OC)C3(F)CC3)c(OC)c12` (stereo not shown) [Example 150, N-(4-((5-((1-fluorocyclopropyl)(methoxy)methyl)-4-methoxy-1-methyl-1H-indazol-3-yl)amino)-5-(propanoyl-3,3,3-d3)pyridin-2-yl)cyclopropanecarboxamide] were, in that order, 0.154 nM and 32.7 nM.
For the molecule `[2H]C([2H])([2H])O[C@@H](c1ccc2c(c(Nc3cc(NC(=O)C4CC4)ncc3C(=O)NC)nn2C)c1OC)C(F)(F)F` [Example 151, (5)-6-(cyclopropanecarboxamido)-4-((4-methoxy-1-methyl-5-(2,2,2-trifluoro-1-(methoxy-d3)ethyl)-1H-indazol-3-yl)amino)-N-methylnicotinamide], the IC50 at TYK2-JH2 domain (read-out: TYK2 JH2 Binding IC50; JH2 domain enzyme; 60 min at 25°C, then 4°C overnight) amounted to 0.053 nM; in test [1] (BaF3, 72 h compound treatment), 0.213 nM.
On to `[2H]C([2H])([2H])NC(=O)c1cnc(NC(=O)C2CC2)cc1Nc1nn(C)c2ccc([C@H](OC)C(F)(F)F)c(OC([2H])([2H])[2H])c12` [Example 152, (S)-6-(cyclopropanecarboxamido)-4-((4-(methoxy-d3)-1-methyl-5-(2,2,2-trifluoro-1-methoxyethyl)-1H-indazol-3-yl)amino)-N-(methyl-d3)nicotinamide], for which the IC50 worked out at 0.071 nM at TYK2-JH2 domain (setting [2]) and 0.284 nM in test [1] (setting [3]).
Consider `[2H]C([2H])([2H])NC(=O)c1cnc(NC(=O)C2CC2)cc1Nc1nn(C([2H])([2H])[2H])c2ccc([C@H](OC)C(F)(F)F)c(OC)c12` [Example 153, (S)-6-(cyclopropanecarboxamido)-4-((4-methoxy-1-(methyl-d3)-5-(2,2,2-trifluoro-1-methoxyethyl)-1H-indazol-3-yl)amino)-N-(methyl-d3)nicotinamide], for which the IC50 on TYK2-JH2 domain (setting [2]) was determined as 0.055 nM; in test [1] (setting [3]), 0.235 nM.
